In patent US20100099756A1, “USES OF INCENSOLE, INCENSOLE ACETATE AND DERIVATIVES THEREOF” (YISSUM RESEARCH DEVELOPMENT COMPANY OF THE HEBREW …, priority 2006, published 2010):

How the values were obtained:
[1] = tested on: ROS generation; experiment: ROS production by zymosan-activated RAW 264.7 macrophages (chemiluminescence); type: cell-based, mice
Method: (A(1)) Representative Western Blot bands of Cox2 are shown with tubulin as reference. (A(2)) COX-2 levels were measured in RAW 264.7 cells incubated for 24 hrs. with LPS in the presence or in the absence of IA (60 μM/ml); **, p<0.001. (B) Murine peritoneal macrophages were activated by LPS (1 μg/ml for 24 hrs.) in absence of IA or in the presence of IA at indicated concentrations. NO generation was determined by measuring the nitrite accumulated in the supernatants; **, p<0.001. (C) Generation of ROS by RAW 264.7 macrophages (5×10^5 cells in 0.5 ml Hanks' balanced salt solution) was measured by chemiluminescence. Cells were pre-incubated with various doses of IA for 24 hrs before luminol (10 μl) and zymosan (30 μl) were added to the tubes; *, p<0.05; **, p<0.01; ***, p<0.001
ROS (Reactive Oxygen Species) Production by RAW 264.7 Macrophages. Raw 264.7 cells were scrapped, washed and resuspended in Hanks' balanced salt solution (without phenol red). For measurement of chemiluminescence, 0.5 ml of cell suspension (5×10^5 cells) was added to each luminometer tube, together with various doses of IA tested (dissolved in ethanol and further diluted with Hanks). […] 10 μl of luminol (Sigma, St. Louis, USA) and 30 μl of zymosan (Sigma, St. Louis, USA) were added to the tubes, and the chemiluminescence was measured immediately in a luminometer (Biolumate LB 95, Berhold, Wilbad, Germany).

[2] = tested on: immobility; experiment: Porsolt forced swimming test; type: in vivo, female Sabra mice; details: recorded over 9 minutes, 50 mg/kg i.p.
[3] = target: T1, TRPV3 (Mus musculus, UniProt Q8K424); experiment: Elevated plus maze in WT and TRPV3−/− mice; type: in vivo, C57BL/6 mice; parameters: from tissue; host or cells: whole animal, wild type C57BL/6 female mice (TRPV3 KO as control); details: 75 mg/kg
T1 sequence (Q8K424 1-791): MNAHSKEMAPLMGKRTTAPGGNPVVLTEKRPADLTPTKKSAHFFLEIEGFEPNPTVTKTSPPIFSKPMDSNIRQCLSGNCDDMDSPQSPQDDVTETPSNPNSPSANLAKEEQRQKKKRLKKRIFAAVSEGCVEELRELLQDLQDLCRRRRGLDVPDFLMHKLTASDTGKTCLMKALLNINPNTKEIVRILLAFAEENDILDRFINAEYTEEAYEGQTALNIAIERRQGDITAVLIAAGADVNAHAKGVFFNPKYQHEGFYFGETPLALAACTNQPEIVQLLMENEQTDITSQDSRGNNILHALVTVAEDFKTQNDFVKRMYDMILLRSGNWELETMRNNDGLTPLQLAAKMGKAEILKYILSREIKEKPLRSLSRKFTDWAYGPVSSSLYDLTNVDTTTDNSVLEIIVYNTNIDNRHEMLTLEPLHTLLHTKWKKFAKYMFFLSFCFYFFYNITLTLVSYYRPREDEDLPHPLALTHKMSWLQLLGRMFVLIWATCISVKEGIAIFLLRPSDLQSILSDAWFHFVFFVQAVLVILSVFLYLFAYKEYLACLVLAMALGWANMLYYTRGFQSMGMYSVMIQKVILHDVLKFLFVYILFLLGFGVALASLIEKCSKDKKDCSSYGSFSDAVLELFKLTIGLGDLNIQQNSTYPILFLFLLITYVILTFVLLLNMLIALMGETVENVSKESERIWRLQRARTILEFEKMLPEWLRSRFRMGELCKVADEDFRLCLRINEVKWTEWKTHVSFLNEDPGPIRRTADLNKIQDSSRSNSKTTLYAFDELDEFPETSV
Method: Wild type and TRPV3^−/− mice (18-20 weeks old) were injected with vehicle (isopropanol:emulphor:saline=1:1:18) or IA (75 mg/kg). 30 min later they were tested in a, the elevated plus maze (5 min), followed by b, 9 min exposure to the Porsolt forced-swimming test. […] Data are presented as means±SEM; n=4-5. * p<0.05, compared to WT-Vehicle-injected mice (Bonferroni post hoc test). ** p<0.01, compared to WT-Vehicle-injected mice (Bonferroni post hoc test).
Mice were placed in the central platform (10×10 cm) between the open (10×45 cm) and enclosed (10×45×40 cm) arms of a plus maze. The number of entries and the time spent in each of the arms was recorded. As described by others (Crawley, 2000; Treit and Menard, 1998), an ‘anti-anxiety’ effect was calculated both as the ratio of entries onto the open arms to total arm entries, and as the % time on the open arms proportional to the time in the closed arms. Mice (female Sabra strain, aged 3.5-4.5 months old) were injected intraperitoneally with 10, 30 or 50 mg/kg of incensole acetate or with vehicle. Each dose was administered to 5 mice. Fifty min after injection the mice were tested in the plus-maze for […] effects. Desipramine (5 mg/kg) was injected to a separate group of mice as a positive control. One-way Anova indicated significant effects (F=8.9, df=4.27, P<0.01). […] Data are presented as means±SEM. DMI=desipramine […]

## CC(=O)OC1CC/C(C)=C/CC/C(C)=C/CC2(C(C)C)CCC1(C)O2 (centres unmarked) [IA, incensole acetate]
[1]; Mus musculus, RAW264.7, at 60 μM, p=0.0021
  inhibition at 60 µM: ~45%
[1]; three concentrations, 24 hrs pre-incubation, ANOVA P<0.0001
  ROS generation, dose dependence: significant dose-dependent inhibitory effect
[2]
  immobility in the Porsolt forced-swim test: significantly reduced the immobility
[3]; TRPV3−/− mice, IA vs vehicle
  time on the open arms, TRPV3−/− mice: spent identical time on the open arms
[3]; WT mice, 30 min after injection
  time on the open arms, WT mice: potent anxiolytic-like effect
